# Experimental data published in paper PMC4281022 (Journal of medicinal chemistry, 2013).
# “Also recorded” adds a separate entry of the source.
# Assays:
# human CB1 [1] = biological target: T1, human CB1 (Homo sapiens, UniProt P21554); assay: CB1 calcium mobilization assay, antagonist apparent affinity; type: cell-based
# CB1 receptor = CB1 receptor (Mus musculus, UniProt P47746); assay: Tetrad test: attenuation of central effects of Δ^9-THC; type: in vivo; settings: 10 mg/kg oral, ICR mice
# human CB1 [2] = biological target: T1, human CB1; assay: [3H]CP55940 radioligand displacement at CB1, membranes of CHO-K1 cells; type: binding; settings: ratio of Ki values
# CB1 receptor, sequence (P47746 whole entry): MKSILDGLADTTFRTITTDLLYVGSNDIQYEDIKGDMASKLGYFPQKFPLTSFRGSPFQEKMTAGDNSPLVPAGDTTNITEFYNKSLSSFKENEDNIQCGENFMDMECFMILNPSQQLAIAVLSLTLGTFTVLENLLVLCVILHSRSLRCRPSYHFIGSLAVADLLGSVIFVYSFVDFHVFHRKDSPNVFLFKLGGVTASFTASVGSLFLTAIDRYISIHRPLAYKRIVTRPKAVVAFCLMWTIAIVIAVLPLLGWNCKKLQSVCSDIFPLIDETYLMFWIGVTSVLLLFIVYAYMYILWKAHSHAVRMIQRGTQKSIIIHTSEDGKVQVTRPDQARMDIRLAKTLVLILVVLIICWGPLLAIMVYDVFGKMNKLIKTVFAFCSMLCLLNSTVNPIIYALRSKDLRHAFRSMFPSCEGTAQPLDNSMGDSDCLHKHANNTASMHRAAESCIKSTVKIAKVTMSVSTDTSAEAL
# T1 sequence (P21554 whole entry): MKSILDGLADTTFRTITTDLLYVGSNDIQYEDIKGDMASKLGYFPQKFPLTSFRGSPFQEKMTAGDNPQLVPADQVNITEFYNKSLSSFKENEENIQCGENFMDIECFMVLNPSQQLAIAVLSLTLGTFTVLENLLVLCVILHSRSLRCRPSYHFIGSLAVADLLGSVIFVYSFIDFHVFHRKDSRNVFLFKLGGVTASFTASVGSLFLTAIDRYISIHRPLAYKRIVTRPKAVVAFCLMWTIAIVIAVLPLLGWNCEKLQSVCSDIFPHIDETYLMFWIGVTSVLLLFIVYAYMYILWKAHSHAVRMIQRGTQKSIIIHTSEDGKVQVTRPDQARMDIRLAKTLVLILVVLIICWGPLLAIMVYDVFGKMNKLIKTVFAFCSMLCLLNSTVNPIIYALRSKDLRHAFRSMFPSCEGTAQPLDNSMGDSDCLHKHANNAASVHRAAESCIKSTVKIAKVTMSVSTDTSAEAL
molecule,measurement,setting,value
"O=S(=O)(NC1CCN(c2ncnc3c2nc(-c2ccccc2Cl)n3-c2ccc(Cl)cc2)CC1)C(F)(F)F [Compound 18, N-{1-[8-(2-chlorophenyl)-9-(4-chlorophenyl)-9H-purin-6-yl]piperidin-4-yl,}-1,1,1-trifluoromethanesulfonamide]",Activity in the calcium mobilization assay,human CB1 [1],very active
"O=C(CCN1CCCCC1)NC1CCN(c2ncnc3c2nc(-c2ccccc2Cl)n3-c2ccc(Cl)cc2)CC1 [Compound 15, N-{1-[8-(2-Chlorophenyl)-9-(4-chlorophenyl)-9H-purin-6-yl]piperidin-4-yl}-3-(piperidin-1-yl)propanamide]",Kb,human CB1 [1],789 nM
"CCCCC(=O)NC1CCN(c2ncnc3c2nc(-c2ccccc2Cl)n3-c2ccc(Cl)cc2)CC1 [Compound 9, N-{1-[8-(2-Chlorophenyl)-9-(4-chlorophenyl)-9H-purin-6-yl]piperidin-4-yl}pentanamide]",Reversal of the cannabimimetic effects of Δ^9-THC (tetrad),CB1 receptor; 30 min before 30 mg/kg i.v. Δ^9-THC,without efficacy; also recorded: did not reverse any of the cannabimimetic effects of Δ^9-THC; also recorded: could not be reversed
same,Effects in tetrad tests by itself,CB1 receptor; in combination with vehicle,did not produce any significant effects
same,Selectivity for CB1 over CB2,human CB1 [2],> 50 fold
N-{1-[8-(2-chlorophenyl)-9-(4-chlorophenyl)-9H-purin-6-yl]piperidin-4-yl}aminosulfonamide [Compound 17],Activity in the calcium mobilization assay,human CB1 [1],did not have significant activity
